Measurements published in US20240238460A1, “IMPROVED PROSTATE-SPECIFIC MEMBRANE ANTIGEN TARGETING RADIOPHARMACEUTICALS AND USES THEREOF” (TELIX PHARMACEUTICALS (INNOVATIONS) PTY LTD, priority 2021, published 2024).

Tests used:
LNCaP cells = experiment: Cellular uptake experiments with 99mTc-labeled ligands in LNCaP cells (with and without 2-PMPA competitor); format: cell-based
Protocol: (§1) Phosphate buffer was prepared from 890 mg Na2PO4.2H2O in 9.5 mL water for injection and 0.5 mL 2 m NaOH. After dissolution of the salts, the buffer was sterile filtered, the pH was determined using pH stripes (pH=11.5-12.0). The labeling mixture consisted of 1 μl precursor solution (1 mg/ml in MeCH/H2O 20:50; approx. 1 nmol), 20 μl phosphate buffer, 10 μl […] (TCEP; 28.7 mg/mL in phosphate buffer; 0.1 molar solution) and 4-10 μL pertechnetate in saline (0.9% NaCl; generator cluate) containing an activity of approx. 7.5 MBq. The mixture was filled to 100 μl with saline (0.9% NaCl; 59-65 μL). The pH of the reaction mixture was 8.0-8.5 (tendency towards 8.5). The mixture was heated at 98° C. for 10 minutes. After cooling to room temperature, the mixture was diluted to 1 mL by addition of saline (0.9% NaCl, ligand concentration 1 μm). An aliquot was analyzed by HPLC to determine the radiochemical yield (RCY) (method B, see example 9). Aliquots of the product mixture containing the ^99mTc-labeled ligand were further diluted to a concentration of approx. 100 nM (precursor) in PBS with and without a 10000 fold excess of 2-(Phosphonomethyl)-pentandioic acid, 2-Phosphonomethyl pentanedioic acid (2-PMPA) as competitor.
Cellular uptake experiments were conducted in analogy to previously described procedures (Lindner et al., Doi.: 10.2967/jnumed.118.210443). Briefly, LNCaP cells were seeded in 6-Well plates in RPMI medium containing 20% FBS (two day of incubation prior to the experiment) and grown to a confluency of 70-80%. For the uptake experiment, the medium was removed and the cells were incubated with 1 mL of a 1:99 dilution of the 100 nM product mixture dilutions (with and without competitor) described in Example 3. […] The cellular uptake was determined from the activity in the lysed fraction. The unspecific uptake was determined from the cellular uptake of the cells incubated with the ligand in presence of the competitor. […]

PSMA = biological target: T1, PSMA (Homo sapiens, UniProt Q04609); experiment: Competitive binding experiments on LNCaP cells (competitor 2-PMPA), Ki by Cheng-Prusoff; settings: 1 h, calculated from IC50 with cheng-prusoff equation, values printed in parentheses
T1 construct: endogenous in cells; host or cells: LNCaP cells
Protocol: as §1
For determination of Ki, competitive binding experiments were conducted. […] The cellular uptake was determined from the activity in the lysed fraction.

T1 sequence (Q04609 whole entry): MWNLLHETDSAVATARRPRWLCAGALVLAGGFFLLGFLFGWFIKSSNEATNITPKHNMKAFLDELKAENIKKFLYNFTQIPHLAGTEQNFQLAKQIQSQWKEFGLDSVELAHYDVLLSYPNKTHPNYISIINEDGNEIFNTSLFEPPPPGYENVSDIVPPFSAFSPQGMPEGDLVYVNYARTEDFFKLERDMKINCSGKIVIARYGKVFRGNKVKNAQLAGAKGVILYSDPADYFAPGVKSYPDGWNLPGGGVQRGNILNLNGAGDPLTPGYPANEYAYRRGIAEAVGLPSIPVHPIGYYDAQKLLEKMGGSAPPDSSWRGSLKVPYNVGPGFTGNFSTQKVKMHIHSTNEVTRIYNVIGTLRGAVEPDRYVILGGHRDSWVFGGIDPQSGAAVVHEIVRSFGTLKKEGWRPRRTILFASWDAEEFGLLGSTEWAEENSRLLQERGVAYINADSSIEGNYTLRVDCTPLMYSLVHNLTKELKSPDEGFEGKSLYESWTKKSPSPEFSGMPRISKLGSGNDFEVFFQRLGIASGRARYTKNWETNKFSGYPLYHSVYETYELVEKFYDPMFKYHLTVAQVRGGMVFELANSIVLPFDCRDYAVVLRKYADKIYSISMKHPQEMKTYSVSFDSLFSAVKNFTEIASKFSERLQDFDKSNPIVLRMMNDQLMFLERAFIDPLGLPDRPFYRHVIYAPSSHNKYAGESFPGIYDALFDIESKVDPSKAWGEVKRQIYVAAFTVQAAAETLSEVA

- Ki (PSMA): 38 nM
Substance: ^99mTc-EDDA-HYNIC-iPSMA [[^99mTc]TLX-598]
- Specific uptake (LNCaP cells; 1 h, unspecific uptake subtracted from cellular uptake): 18.7 ± 0.3 % AD/10^6 cells
- Unspecific uptake (LNCaP cells; 1 h incubation, in presence of 10000 fold excess 2-PMPA): 1.64 ± 0.07 % AD/10^6 cells
- Uptake (LNCaP cells; 1 h incubation, triplicate): 20.3 ± 0.3 % AD/10^6 cells
